Consider three compounds from BindingDB's records for doi:10.1124/jpet.300.1.305 (Merck Research Laboratories, 2002).

Test [1] addresses Neurotensin receptor type 2 (Mus musculus, UniProt P70310).
Test [2] addresses Neurotensin receptor type 1 (Mus musculus, UniProt O88319).

Square brackets hold non-standard residues; d marks the D form. Peptide text beside a SMILES is read from it. NMeR = CN[C@@H](CCCNC(=N)N)C(=O)O; Tle = CC(C)(C)[C@H](N)C(=O)O

Chain of Neurotensin receptor type 2 (P70310 whole entry): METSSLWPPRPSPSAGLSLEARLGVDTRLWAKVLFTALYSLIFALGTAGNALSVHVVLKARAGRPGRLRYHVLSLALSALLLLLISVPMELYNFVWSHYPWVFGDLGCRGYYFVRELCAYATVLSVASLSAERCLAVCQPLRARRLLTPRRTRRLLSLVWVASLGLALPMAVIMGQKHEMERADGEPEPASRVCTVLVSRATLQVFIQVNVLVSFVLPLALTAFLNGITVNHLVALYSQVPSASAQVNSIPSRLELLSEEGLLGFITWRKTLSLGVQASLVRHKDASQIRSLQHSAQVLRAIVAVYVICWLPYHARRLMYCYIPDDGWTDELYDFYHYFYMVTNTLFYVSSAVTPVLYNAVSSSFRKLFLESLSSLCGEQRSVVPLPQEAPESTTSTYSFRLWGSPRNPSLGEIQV
Chain of Neurotensin receptor type 1 (O88319 whole entry): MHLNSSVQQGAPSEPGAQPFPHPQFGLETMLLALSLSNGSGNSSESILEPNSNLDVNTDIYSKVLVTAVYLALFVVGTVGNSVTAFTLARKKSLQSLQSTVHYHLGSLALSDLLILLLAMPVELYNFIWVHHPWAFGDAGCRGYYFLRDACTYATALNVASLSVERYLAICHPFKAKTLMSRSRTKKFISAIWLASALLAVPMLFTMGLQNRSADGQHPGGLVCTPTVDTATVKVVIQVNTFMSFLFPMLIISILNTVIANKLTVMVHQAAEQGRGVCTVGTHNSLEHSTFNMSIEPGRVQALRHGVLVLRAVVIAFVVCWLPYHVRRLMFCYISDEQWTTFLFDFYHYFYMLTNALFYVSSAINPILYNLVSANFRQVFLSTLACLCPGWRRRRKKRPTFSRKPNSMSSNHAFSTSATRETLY

In general, Ki refers to the equilibrium dissociation constant of an inhibitor or competing ligand from its target. The compound `CC1CN(C2CCC(C#N)(c3ccc(F)cc3)CC2)CCC1(C(=O)O)c1ccccc1` (stereo not given) [NSC_54385] had an inhibitory constant (Ki) in test [1] of 17 nM. With H-KNPYIL-OH [NSC_128644], the results for the Ki in test [2] and in test [1] were 0.25 nM and 7 nM, respectively. On to `CN[C@@H](CCCNC(=N)N)C(=O)N[C@@H](CCCCN)C(=O)N1CCC[C@H]1C(=O)N[C@@H](Cc1c[nH]c2ccccc12)C(=O)N[C@H](C(=O)N[C@@H](CC(C)C)C(=O)O)C(C)(C)C` (H-[NMeR]KPW[Tle]L-OH), for which the values for the Ki in test [2] and in test [1] were 0.11 nM and 3.8 nM, respectively.
